Assay results published in patent US20250195432A1, “METHODS FOR PREPARING AND CHARACTERIZING ZEIN-FUCOIDAN CONJUGATED NANO-LIPOSOME FOR PHYTOL ENCAPSULATION” (Zhejiang Academy of Forestry, priority 2023, published 2025).

Key:
HepG2 cells [1] = experiment: MDA content in HepG2 cells with TBHP-induced oxidative damage; assay type: cell-based, human; conditions: HepG2, TBHP (10 μg/mL)
Description: (§1) • culturing the digested HepG2 cells for 24 hours and then adding […] concentrations of PHY, P-ZF, P-NL, and P-NL-ZF to the plate for another 24 hours of incubation; […]; measuring a cell survival rate, an intracellular reactive oxygen species (ROS) level, malondialdehyde (MDA) content, and superoxide dismutase (SOD) activity.
(§2) • placing the digested HepG2 cells in a culture dish and performing a treatment as in step (O); adding 10.00 μM 2′,7′-dichlorodihydrofluorescein diacetate (DCFH-DA) and incubating for 0.5 hours, followed by washing with PBS (pH 7.4); allowing intracellular esterase to cleave the DCFH-DA, which is then oxidized to highly fluorescent dichlorofluorescein in the presence of ROS; measuring a fluorescence intensity of the 96-well plate using a multifunctional microplate reader at an excitation wavelength of 485 nm and an emission wavelength of 528 nm, expressing the intracellular ROS level as a percentage of the negative control group; • assessing the SOD activity and the MDA content by culturing the digested HepG2 cells for 24 hours; after the treatment as in step (O), adding 300 μL of lysis buffer and incubating on ice for 30 minutes; centrifuging at 11,000×g for 5 minutes at 4° C. and collecting a resulting supernatant; and quantifying the SOD activity and the MDA content according to instructions of SOD and MDA assay kits; and […]

HepG2 cells [2] = experiment: TBHP-induced oxidative damage concentration, cell viability by CCK-8; assay type: cell-based, human; conditions: HepG2, TBHP 10 μg/mL, 24 hours
Description: HepG2 cells, after digestion, were seeded at a density of 1×10^5 cells/well in a 96-well cell culture plate and were incubated in a cell culture incubator. […] After 24 hours of incubation, the culture medium was removed, and the working solutions of TBHP at different concentrations were added to the wells, followed by an additional 24 hours of incubation. After the incubation period, the vitality of the HepG2 cells was assessed using the CCK-8 method, as detailed in section 2.6.4.

HepG2 cells [3] = experiment: SOD activity in HepG2 cells with TBHP-induced oxidative damage; assay type: cell-based, human; conditions: HepG2, TBHP (10 μg/mL)
Description: as §1, §2

HepG2 cells [4] = experiment: Intracellular ROS level (DCFH-DA) in HepG2 cells with TBHP-induced oxidative damage; assay type: cell-based, human; conditions: for ROS level (percentage of the negative control group): HepG2, pre-treatment 100 μg/mL phytol 24 h, then TBHP (10 μg/mL)
Description: • […], P-ZF, P-NL, and P-NL-ZF to the plate for another 24 hours of incubation; […]; measuring a cell survival rate, an intracellular reactive oxygen species (ROS) level, malondialdehyde (MDA) content, and superoxide dismutase (SOD) activity.
• placing the digested HepG2 cells in a culture dish and performing a treatment as in step (O); adding 10.00 μM 2′,7′-dichlorodihydrofluorescein diacetate (DCFH-DA) and incubating for 0.5 hours, followed by washing with PBS (pH 7.4); allowing intracellular esterase to cleave the DCFH-DA, which is then oxidized to highly fluorescent dichlorofluorescein in the presence of ROS; measuring a fluorescence intensity of the 96-well plate using a multifunctional microplate reader at an excitation wavelength of 485 nm and an emission wavelength of 528 nm, expressing the intracellular ROS level as a percentage of the negative control group; • assessing the SOD activity and the MDA content by culturing the digested HepG2 cells for 24 hours; after the treatment as in step (O), adding 300 μL of lysis buffer and incubating on ice for 30 minutes; centrifuging at 11,000×g for 5 minutes at 4° C. and collecting a resulting supernatant; and quantifying the SOD activity and the MDA content according to instructions of SOD and MDA assay kits; and
• seeding the digested cells at a density of 3×10^5 cells per well into a 6-well plate and incubating for 24 hours; after incubation, aspirating a culture medium and continuing with the grouping and treatment as in step (0); after 24 hours, replacing an original solution with 25 μM DCFH-DA solution and incubating for 60 minutes; washing the cells twice with PBS to remove unabsorbed probes; observing a fluorescence generated within the cells by placing the 6-well plate under a fluorescence microscope equipped with an FITC fluorescence channel.
HepG2 cells, after digestion, were seeded at a density of 1×10^5 cells/well in a 96-well cell culture plate and were placed in a cell culture incubator. […]

[5] = Hydroxyl radical scavenging activity; assay type: biochemical; conditions: 37° C., 30 minutes, absorbance 536 nm
Description: • mixing 1.00 mL of the nanoliposomes with 1.00 mL of 9.00 mmol/L salicylic acid ethanol solution, 1.00 mL of 9.00 mmol/L FeCl2, and 1.00 mL of 8.80 mmol/L H2O2; incubating a resulting mixture in the dark at 37° C. for 30 minutes; measuring an absorbance of a reaction mixture at 536 nm using a multifunctional microplate reader and calculating a hydroxyl radical scavenging rate;
A sample of the nanoliposome (1.00 mL) was mixed with an ethanol solution of salicylic acid (1.00 mL, 9.00 mmol/L), FeCl2 (1.00 mL, 9.00 mmol/L), and H2O2(1.00 mL, 8.80 mmol/L) and incubated in the dark at 37° C. for 30 minutes. The absorbance of the reaction mixture was measured at 536 nm using a multifunctional microplate reader (Varioskan Flash, Thermo Fisher Scientific, Massachusetts, USA). The hydroxyl radical scavenging rate was calculated using the following formula: […]

[6] = Photostability under UV light, phytol retention by GC-MS; assay type: physicochemical; conditions: after 16 hours of UV exposure; free phytol in ethanol
Description: • exposing a sample to ultraviolet (UV) light for various irradiation durations: […], 90 minutes, 120 minutes, 150 minutes, 180 minutes, 210 minutes, 240 minutes, 270 minutes, […]; and determining retention of phytol content using GC-MS.
To assess the photostability of phytol loaded in nanoparticles (P-ZF, P-NL, and P-NL-ZF) as well as free phytol dissolved in ethanol, samples were irradiated under UV light for various durations: […], 90 minutes, 120 minutes, 150 minutes, 180 minutes, 210 minutes, 240 minutes, 270 minutes, […] The content of retained phytol was determined using GC-MS as described in Section 2.5.2. The calculation formula for retention rate is given as follows: […]

Compound	MDA level (lipid peroxidation) (HepG2 cells [1])	cell viability (HepG2 cells [2]) [%]	SOD activity (HepG2 cells [3]) [U/mg protein]	ROS level (percentage of the negative control group) (HepG2 cells [4]) [%]	scavenging capability against •OH radicals [5] [%]	retention rate of phytol under UV [6] [%]	reduction of ROS level compared to the positive control (328.16%) (HepG2 cells [4]; HepG2, TBHP (10 μg/mL)) [%]
CC(C)(C)OO [TBHP, Tert-Butyl Hydrogen Peroxide]	significant increase in MDA	65.67	8.43	328.42	–	–	–
(2E,3,7R,11R,15)-tetramethyl-hexadecen-1-ol [PHY]	–	–	11.61	230.72	40	1.21	97.44
